Results on ten compounds are retold here after article PMC10531311, “Anti-Inflammatory Activities of 8-Benzylaminoxanthines Showing High Adenosine A2A and Dual A1/A2A Receptor Affinity” (International Journal of Molecular Sciences, 2023).

The structures appear in SMILES notation.

Data set [1] concerns the target T1, human adenosine A3R (Homo sapiens, UniProt P0DMS8).
T1 construct: expressed in transfected cells; host or cells: CHO cells
T1 sequence (P0DMS8 1-318): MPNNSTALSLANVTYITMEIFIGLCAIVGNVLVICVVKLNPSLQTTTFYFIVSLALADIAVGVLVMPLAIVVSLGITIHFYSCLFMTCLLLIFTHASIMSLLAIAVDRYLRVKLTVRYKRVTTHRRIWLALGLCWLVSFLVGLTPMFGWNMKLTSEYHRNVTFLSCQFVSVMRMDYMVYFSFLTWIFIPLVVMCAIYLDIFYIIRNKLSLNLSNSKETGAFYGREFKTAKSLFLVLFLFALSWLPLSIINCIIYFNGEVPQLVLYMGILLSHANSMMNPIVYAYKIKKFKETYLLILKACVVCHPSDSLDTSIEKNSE
Nature of the data set: Radioligand binding at human adenosine A3 receptor vs. [3H]PSB-11. As to conditions: for inhibition at 1 µM: CHO cells, read-out: A3R vs. [H³]PSB-11 % Inhibition ± SEM at 1 µM; for Ki: human recombinant receptor in CHO cells, read-out: A3R vs. [H³]PSB-11 Ki ± SEM. The protocol: (§1) Affinities for adenosine receptors were evaluated in radioligand binding assays as previously described. Human adenosine receptors were stably expressed in CHO cells. The following radioligands were used: [^3H]2-chloro-N^6-cyclopentyladenosine ([^3H]CCPA) for A1R; [^3H]3-(3-hydroxypropyl)-7-methyl-8-(m-methoxystyryl)-1-propargylxanthine ([^3H]MSX-2) for A2AR; [^3H]8-(4-(4-(4-chlorophenyl)piperazine-1-sulfonyl)phenyl)-1-propylxanthine ([^3H]PSB-603) for A2BR; [^3H]phenyl-8-ethyl-4-methyl-(8R)-4,5,7,8-tetrahydro-1H-imidazo [2,1-i]purine-5-one ([^3H]PSB-11) for A3R. Initially, compounds were tested at a concentration of 1 µM. […] At least three independent experiments were performed. Data were analyzed using GraphPad PRISM version 5.0 or higher (Graph Pad, San Diego, CA, USA). Ki were calculated using the Cheng–Prusoff equation.

The target in data set [2] is T2, human adenosine A1R (Homo sapiens, UniProt P30542).
T2 construct: expressed in transfected cells; host or cells: CHO cells
T2 sequence (P30542 1-326): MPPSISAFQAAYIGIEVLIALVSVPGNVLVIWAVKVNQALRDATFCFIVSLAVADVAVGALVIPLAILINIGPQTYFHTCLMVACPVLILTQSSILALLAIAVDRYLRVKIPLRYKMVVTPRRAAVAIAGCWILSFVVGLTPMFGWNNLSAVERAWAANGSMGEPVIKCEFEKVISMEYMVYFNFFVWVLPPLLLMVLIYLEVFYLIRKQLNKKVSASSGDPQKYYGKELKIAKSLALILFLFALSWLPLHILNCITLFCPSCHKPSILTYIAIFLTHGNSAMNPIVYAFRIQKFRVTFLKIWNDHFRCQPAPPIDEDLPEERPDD
Nature of the data set: Radioligand binding at human adenosine A1 receptor vs. [3H]CCPA. As to conditions: for inhibition at 1 µM: CHO cells, read-out: A1R vs. [³H]CCPA % Inhibition ± SEM at 1 µM; for Ki: human recombinant receptor in CHO cells, read-out: A1R vs. [³H]CCPA Ki ± SEM. The protocol: as §1

In data set [3] the target is T3, human MAO B (Homo sapiens, UniProt P27338).
T3 sequence (P27338 1-520): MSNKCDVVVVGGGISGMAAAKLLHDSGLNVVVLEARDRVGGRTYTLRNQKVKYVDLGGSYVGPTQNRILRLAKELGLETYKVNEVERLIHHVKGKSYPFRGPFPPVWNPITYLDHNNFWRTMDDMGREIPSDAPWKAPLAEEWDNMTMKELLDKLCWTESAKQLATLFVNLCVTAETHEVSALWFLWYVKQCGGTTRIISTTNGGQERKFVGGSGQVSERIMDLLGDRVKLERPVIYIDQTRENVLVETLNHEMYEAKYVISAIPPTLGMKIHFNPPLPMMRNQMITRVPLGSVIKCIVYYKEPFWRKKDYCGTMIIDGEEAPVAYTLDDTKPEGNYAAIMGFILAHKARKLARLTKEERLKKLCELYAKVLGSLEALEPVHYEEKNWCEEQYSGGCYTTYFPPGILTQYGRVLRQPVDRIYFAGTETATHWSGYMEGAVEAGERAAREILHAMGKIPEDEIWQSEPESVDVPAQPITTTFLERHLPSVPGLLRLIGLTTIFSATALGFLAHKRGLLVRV
Nature of the data set: Human MAO B inhibition, fluorometric method. In kind it is biochemical. The note with it: mean of two independent experiments, read-out: % of hMAO B Inhibition at 1 µM. As to the method:
The compounds were tested twice in duplicates at a concentration of 1 μM by fluorometric method as previously described. Paratyramine (200 μM) was used as a substrate for the enzyme. Safinamide (1 μM; reversible) and rasagiline (1 μM; irreversible) were used as reference inhibitors.

The target in data set [4] is T4, human adenosine A2BR (Homo sapiens, UniProt P29275).
T4 construct: expressed in transfected cells; host or cells: CHO cells
T4 sequence (P29275 1-332): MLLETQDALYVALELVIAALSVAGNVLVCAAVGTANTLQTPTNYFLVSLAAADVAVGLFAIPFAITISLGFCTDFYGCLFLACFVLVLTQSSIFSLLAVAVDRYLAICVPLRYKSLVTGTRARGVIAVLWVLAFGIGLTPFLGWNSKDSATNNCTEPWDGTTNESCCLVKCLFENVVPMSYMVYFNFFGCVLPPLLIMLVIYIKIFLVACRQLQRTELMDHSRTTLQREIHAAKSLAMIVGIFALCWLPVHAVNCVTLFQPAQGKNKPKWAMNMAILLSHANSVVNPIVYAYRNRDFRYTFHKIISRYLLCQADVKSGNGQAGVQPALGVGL
Nature of the data set: Radioligand binding at human adenosine A2B receptor vs. [3H]PSB-603. The note with it: for inhibition at 1 µM: CHO cells, read-out: A2BR vs. [³H]PSB-603 % Inhibition ± SEM at 1 µM; for Ki: human recombinant receptor in CHO cells, read-out: A2BR vs. [³H]PSB-603 Ki ± SEM. The protocol:
as §1

Data set [5] has as its target T5, human adenosine A2AR (Homo sapiens, UniProt P29274).
T5 construct: expressed in transfected cells; host or cells: CHO cells
Nature of the data set: Radioligand binding at human adenosine A2A receptor vs. [3H]MSX-2. The note with it: for Ki: human recombinant receptor in CHO cells, read-out: A2AR vs. [³H]MSX-2 Ki ± SEM; for A2AR vs. [³H]MSX-2 % Inhibition ± SEM at 1 µM: CHO cells. The protocol:
as §1

T5 sequence (P29274 whole entry): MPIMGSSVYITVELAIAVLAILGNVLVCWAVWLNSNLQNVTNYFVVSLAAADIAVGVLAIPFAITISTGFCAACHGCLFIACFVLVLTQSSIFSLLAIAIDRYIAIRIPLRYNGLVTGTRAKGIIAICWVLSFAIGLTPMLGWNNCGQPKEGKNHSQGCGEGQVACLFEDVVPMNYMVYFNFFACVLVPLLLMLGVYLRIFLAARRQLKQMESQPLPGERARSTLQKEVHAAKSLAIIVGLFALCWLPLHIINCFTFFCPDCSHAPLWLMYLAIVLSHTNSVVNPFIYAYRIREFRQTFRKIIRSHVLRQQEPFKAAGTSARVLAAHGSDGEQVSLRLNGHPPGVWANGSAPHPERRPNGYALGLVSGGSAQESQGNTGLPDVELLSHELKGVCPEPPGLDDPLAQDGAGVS

Consider `CCCn1c(=O)c2c(nc(NCc3cccc(OC)c3)n2C)n(C)c1=O` [compound 17, 8-((3-methoxybenzyl)amino)-3,7-dimethyl-1-propyl-3,7-dihydro-1H-purine-2,6-dione], for which the melting point – broadly, the temperature, or range, at which the solid turns liquid – was in the range of 173 to 175 °C. Also, in data set [1], the inhibition (usually the change of the read-out against control, counted positive when it falls) at 1 µM turned out to be 6% and the Ki (commonly a dissociation constant, usually derived from enzyme kinetics or from competition with a known ligand) is more than 1000 nM. For the same compound, in data set [2], the inhibition at 1 µM was determined as 17% and the Ki is more than 1000 nM. Further, the inhibition at 1 µM in data set [3] was 5%. In data set [4], the inhibition at 1 µM stood at 20% and the Ki is more than 1000 nM. In addition, in data set [5], the Ki is 605 ± 120 nM.

`CCCn1c(=O)c2c(nc(NCc3cccc(Br)c3)n2C)n(C)c1=O` [compound 16, 8-((3-Bromobenzyl)amino)-3,7-dimethyl-1-propyl-3,7-dihydro-1H-purine-2,6-dione] came in with a melting point of 220 to 222 °C. In data set [1], the inhibition at 1 µM is 11% and the Ki was more than 1000 nM. Moreover, the Ki in data set [2] is 340 ± 73 nM. Moreover, in data set [3], the inhibition at 1 µM came out at 11%. Further, in data set [4], the inhibition at 1 µM is 30% and the Ki was more than 1000 nM. In data set [5], the Ki was found to be 254 ± 59 nM.

As for `C#CCn1c(=O)c2c(nc(NCc3ccccc3Br)n2C)n(C)c1=O` [compound 20, 8-((2-Bromobenzyl)amino)-3,7-dimethyl-1-(prop-2-yn-1-yl)-3,7-dihydro-1H-purine-2,6-dione], the melting point lay within 210 to 212 °C. Besides, in data set [1], the inhibition at 1 µM turned out to be 13% and the Ki is more than 1000 nM. For the same compound, in data set [2], the inhibition at 1 µM is 44% and the Ki was more than 1000 nM. Also, in data set [3], the inhibition at 1 µM turned out to be 32%. Moreover, in data set [4], the inhibition at 1 µM stood at 25% and the inhibition constant Ki was more than 1000 nM. For the same compound, the Ki in data set [5] worked out at 137 ± 35 nM.

`CCCn1c(=O)c2c(nc(NCc3c(F)cccc3Cl)n2C)n(C)c1=O` [compound 14, 8-((2-Chloro-6-fluorobenzyl)amino)-3,7-dimethyl-1-propyl-3,7-dihydro-1H-purine-2,6-dione] returned a melting point of 241 to 243 °C. Moreover, in data set [1], the inhibition at 1 µM turned out to be 18% and the Ki was more than 1000 nM. Further, in data set [2], the inhibition at 1 µM was determined as 29% and the Ki is more than 1000 nM. The inhibition at 1 µM in data set [3] came to 9%. For the same compound, the Ki in data set [4] came to 687 ± 147 nM. Besides, the Ki in data set [5] came out at 124 ± 26 nM.

For the compound `C#CCn1c(=O)c2c(nc(NCc3cccc(OC)c3)n2C)n(C)c1=O` [compound 25, 8-((3-Methoxybenzyl)amino)-3,7-dimethyl-1-(prop-2-yn-1-yl)-3,7-dihydro-1H-purine-2,6-dione], the melting point fell in the range of 217 to 219 °C. Also, in data set [1], the inhibition at 1 µM came to 0% and the Ki was more than 1000 nM. Moreover, the Ki in data set [2] came to 460 ± 99 nM. Also, in data set [3], the inhibition at 1 µM came out at 11%. Besides, in data set [4], the inhibition at 1 µM worked out at 35% and the Ki is more than 1000 nM. In data set [5], the Ki stood at 225 ± 40 nM.

Compound `CCCn1c(=O)c2c(nc(NCc3ccccc3Br)n2C)n(C)c1=O` [compound 12, 8-((2-Bromobenzyl)amino)-3,7-dimethyl-1-propyl-3,7-dihydro-1H-purine-2,6-dione] showed a melting point of 206 to 207 °C. In data set [1], the inhibition at 1 µM came out at 8% and the Ki is more than 1000 nM. In data set [2], the inhibition at 1 µM worked out at 30% and the Ki is more than 1000 nM. Besides, the inhibition at 1 µM in data set [3] amounted to 7%. In addition, in data set [4], the inhibition at 1 µM was 33% and the Ki was more than 1000 nM. The inhibition constant Ki in data set [5] stood at 361 ± 82 nM.

In turn, `CCCn1c(=O)c2c(nc(NCc3ccccc3F)n2C)n(C)c1=O` [compound 13, 8-((2-Fluorobenzyl)amino)-3,7-dimethyl-1-propyl-3,7-dihydro-1H-purine-2,6-dione] displayed a melting point of 224 to 226 °C. Moreover, in data set [1], the inhibition at 1 µM stood at 6% and the Ki is more than 1000 nM. Also, in data set [2], the inhibition at 1 µM worked out at 32% and the Ki was more than 1000 nM. Also, the inhibition at 1 µM in data set [3] worked out at 15%. Further, in data set [4], the inhibition at 1 µM came out at 21% and the Ki is more than 1000 nM. Moreover, in data set [5], the “A2AR vs. [³H]MSX-2 % Inhibition ± SEM at 1 µM” value is 47 ± 2% and the Ki is more than 1000 nM.

On to `CCCn1c(=O)c2c(nc(NCc3ccc(OC)c(OC)c3)n2C)n(C)c1=O` [compound 18, 8-((3,4-dimethoxybenzyl)amino)-3,7-dimethyl-1-propyl-3,7-dihydro-1H-purine-2,6-dione], for which the melting point is 200 to 201 °C. Besides, in data set [1], the inhibition at 1 µM was -5% and the Ki was more than 1000 nM. Further, in data set [2], the inhibition at 1 µM worked out at 7% and the Ki is more than 1000 nM. Besides, the inhibition at 1 µM in data set [3] was determined as 2%. Moreover, in data set [4], the inhibition at 1 µM was 17% and the Ki was more than 1000 nM. Moreover, in data set [5], the Ki was 773 ± 127 nM.

Consider `C#CCn1c(=O)c2c(nc(NCc3ccc(OC)c(OC)c3)n2C)n(C)c1=O` [compound 26, 8-((3,4-dimethoxybenzyl)amino)-3,7-dimethyl-1-(prop-2-yn-1-yl)-3,7-dihydro-1H-purine-2,6-dione], for which the melting point was in the range of 247 to 249 °C. In data set [1], the inhibition at 1 µM came out at 2% and the Ki was more than 1000 nM. Besides, in data set [2], the inhibition at 1 µM was -2% and the Ki was more than 1000 nM. Also, the inhibition at 1 µM in data set [3] amounted to 3%. In addition, in data set [4], the inhibition at 1 µM turned out to be 28% and the Ki was more than 1000 nM. Besides, the inhibition constant Ki in data set [5] was 108 ± 22 nM.

The compound `CCCCCn1c(=O)c2c(nc(NCc3ccccc3Cl)n2C)n(C)c1=O` [compound 7, 8-((2-Chlorobenzyl)amino)-3,7-dimethyl-1-pentyl-3,7-dihydro-1H-purine-2,6-dione] showed a melting point of 177 to 180 °C. Further, in data set [1], the inhibition at 1 µM turned out to be 13% and the Ki is more than 1000 nM. In data set [2], the inhibition at 1 µM worked out at 35% and the Ki is more than 1000 nM. Also, in data set [4], the inhibition at 1 µM was found to be 41% and the Ki is more than 1000 nM. Further, in data set [5], the “A2AR vs. [³H]MSX-2 % Inhibition ± SEM at 1 µM” value stood at 38 ± 4% and the Ki was more than 1000 nM.
